The values that follow come from PMC6529709 (Heliyon, 2019).

As a reminder, the IC50 is the concentration that inhibits the measured activity by half. Higher therefore signals a need for much substance.

Structures are written as SMILES.

For the assay, the target named is urease (from jack bean) (Canavalia ensiformis, UniProt P07374). Put plainly: indophenol. It counts as biochemical.
Sequence of urease (from jack bean) (P07374 whole entry, looked up): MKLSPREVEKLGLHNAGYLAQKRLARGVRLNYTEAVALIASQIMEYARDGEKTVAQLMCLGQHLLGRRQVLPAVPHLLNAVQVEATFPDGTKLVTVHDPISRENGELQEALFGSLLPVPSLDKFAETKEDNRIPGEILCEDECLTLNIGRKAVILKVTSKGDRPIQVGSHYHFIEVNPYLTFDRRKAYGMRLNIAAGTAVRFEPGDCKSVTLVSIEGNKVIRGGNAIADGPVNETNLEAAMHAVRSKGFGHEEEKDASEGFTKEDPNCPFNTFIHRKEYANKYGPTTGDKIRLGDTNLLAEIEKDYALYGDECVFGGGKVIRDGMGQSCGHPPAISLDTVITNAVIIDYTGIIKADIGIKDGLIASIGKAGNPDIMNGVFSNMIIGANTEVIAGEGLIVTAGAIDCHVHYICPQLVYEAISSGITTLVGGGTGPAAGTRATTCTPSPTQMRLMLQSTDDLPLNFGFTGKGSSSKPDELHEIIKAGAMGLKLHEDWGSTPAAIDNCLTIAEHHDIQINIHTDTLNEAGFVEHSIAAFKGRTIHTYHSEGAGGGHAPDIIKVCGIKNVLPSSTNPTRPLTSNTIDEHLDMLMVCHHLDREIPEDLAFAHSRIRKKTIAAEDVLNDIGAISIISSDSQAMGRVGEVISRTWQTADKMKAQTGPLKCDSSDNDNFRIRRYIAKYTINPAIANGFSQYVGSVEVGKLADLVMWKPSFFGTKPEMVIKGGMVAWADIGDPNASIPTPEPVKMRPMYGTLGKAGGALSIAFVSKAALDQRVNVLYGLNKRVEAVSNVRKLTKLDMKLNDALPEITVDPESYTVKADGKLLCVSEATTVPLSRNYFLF
Take `NC(N)=S` [Thiourea, reference compound]: the IC50 was 65.3 µM. This lies in the double-digit micromolar range.

As for `COc1ccc(/C=N/N=C/c2ccc(OC)cc2)cc1` [ASB1], half-maximal inhibition (IC50) required 38.4 µM.

In turn, `COc1ccc(/C=N/c2cc(Cl)cc(Cl)c2)cc1` [ASB2] had a concentration for half-maximal inhibition (IC50) of 184 µM.
